Measured values: patent publication EP1175907A1, “REMEDIES” (Takara Shuzo Co, Ltd., priority 1999, dated 2000)
“And” between values parts separate entries of the source, which are not always exact repeats. Equal values may be shown once. *1 amine or outer side, *2 acyl side, *3 side chain or, on linkers, in order; H or OH if unused. Where a SMILES comes first, the peptide text is derived from it. Bridges are numbered along the chain shown (N, C = ends). Roman numbers before positions name the chains, in order. [ ]: non-standard residue; d: D form. Actinocin(9to1) = Cc1c2oc3c(C)ccc(C(=O)[*:1])c3nc-2c(C(=O)[*:2])c(N)c1=O; NMeV = CN[C@H](C(=O)O)C(C)C; Sar = CNCC(=O)O

What was measured:
MRC-5 cells [1] = experiment: HGF production in MRC-5 cells with actinomycin D (RNA synthesis inhibitor); assay type: cell-based, Human; details: for Amount of HGF Produced (in Medium): control = 100%
Method: (3) Five-hundred microliters of MRC-5 cells (CCL171: manufactured by DAINIPPON PHARMACEUTICAL CO., LTD., code. 02-021) suspended in a DME medium containing 10% fetal bovine serum so as to have a concentration of 1 × 10^5 cells/ml were added into each well of a 48-well cell culture plate. The cells were cultured at 37°C for 24 hours in the presence of 5% CO2, and then the medium was exchanged for a DME medium containing 1% fetal bovine serum. Thereafter, actinomycin D (RNA synthesis inhibitor: manufactured by Sigma) was added thereto so as to have a final concentration of 0, 0.1, or 1 µg/ml, and a sample to be analyzed was further added thereto. The cells were then cultured for 24 hours. This medium was collected, and the amount of HGF in the medium was determined by using Quantikine Human Hepatocyte Growth Factor (HGF) ELISA Kit (manufactured by Funakoshi, Code. RS-0641-00). As to the amount of HGF produced, negative control was regarded as 100%. As to the inhibitory ratio, the inhibitory ratio (%) of the actinomycin D-added fraction was calculated on the basis of the amount of HGF produced when the fucoidan was added alone at each concentration. The fucoidan derived from Kjellmaniella crassifolia described in item (1) of Reference Example 1 was added so as to have a final concentration of 1, 10 or 100 µg/ml. As the negative control, distilled water was added in the same volume as that of the sample. Each experiment was carried out twice, and an average value was taken. […] It was clarified from these findings that RNA synthesis was probably involved in the induction of HGF production by the fucoidan, not simply freeing of HGF from the cells.
(4) Five-hundred microliters of MRC-5 cells (CCL171: manufactured by DAINIPPON PHARMACEUTICAL CO., LTD., code. 02-021) suspended in a DME medium containing 10% fetal bovine serum so as to have a concentration of 1 × 10^5 cells/ml were added into each well of a 48-well cell culture plate. The cells were cultured at 37°C for 24 hours in the presence of 5% CO2, and then the medium was exchanged for a DME medium containing 1% fetal bovine serum. Thereafter, actinomycin D (RNA synthesis inhibitor: manufactured by Sigma) was added thereto so as to have a final concentration of 0, 0.1, or 1 µg/ml, and a sample was further added thereto. The cells were then cultured for 24 hours. This medium was collected, and the amount of HGF in the medium was determined by using Quantikine Human Hepatocyte Growth Factor (HGF) ELISA Kit (manufactured by Funakoshi, Code. RS-0641-00). In addition, the cells were washed with PBS, and thereafter dissolved in 500 µl of a cytolytic buffer (50 mM HEPES, pH 7.4; 10 mM EDTA, 0.1% Triton x 100; 1 mM PMSF; 1 µg/ml pepstatin A and 1 µg/ml, leupeptin). Further, in order to completely dissolve the cells, the mixture was subjected to sonication treatment, and then centrifuged, to give a supernatant (cell extract). The amount of HGF in the cell was determined in the same manner as that of the concentration of HGF in the medium. As to the amount of HGF produced, negative control was regarded as 100%. As to the inhibitory ratio, the inhibitory ratio (%) of the actinomycin D-added fraction was calculated on the basis of the amount of HGF produced when 7-12SFd-F was added alone at each concentration. 7-12SFd-F was added so as to have a final concentration of 1,10 or 100 µg/ml. As the negative control, distilled water was added in the same volume as that of the sample. Each experiment was carried out three times, and an average value was taken. […] It was clarified from these findings that RNA synthesis was probably involved in the induction of HGF production by 7-12SFd-F, not simply freeing of HGF from the cells.

NHDF cells = experiment: HGF in medium of NHDF cells with or without minoxidil; assay type: cell-based, human
Method: The cells were cultured for 24 hours. […] Also, the same steps were carried out for the group added with only the sample without adding minoxidil. The medium was collected, and the amount of HGF in the medium was determined by using Quantikine Human Hepatocyte Growth Factor (HGF) ELISA Kit. […] As a negative control, distilled water was added in the same volume as that of the sample. Each experiment was carried out three times, and an average value was taken.

MRC-5 cells [2] = experiment: mRNA of HGF in MRC-5 cells (RT-PCR); assay type: cell-based; details: 7-12SFd-F 100 µg/ml, LM Heparin 1 µg/ml or PGE1 1 µM; Hours 0 to 24, compared to control
Method: MRC-5 cells (CCL 171: manufactured by DAINIPPON PHARMACEUTICAL CO., LTD., code. 02-021) cultured in a DMEM medium containing 10% fetal bovine serum were suspended in the DMEM medium containing 10% fetal bovine serum so as to have a concentration of 2.5 × 10^5 cells/ml, and added into each well of a 6-well cell culture plate. The cells were cultured at 37°C for 24 hours in the presence of 5% CO2. Thereafter, the medium was exchanged for a DMEM medium containing 1% fetal bovine serum, and the cells were further cultured for 22 hours. Thereafter, the medium was exchanged for each medium added with 7-12SFd-F prepared in item (3) of Reference Example 2 so as to have a final concentration of 100 µg/ml, LM Heparin (manufactured by Celsus Laboratories) so as to have a final concentration of 1 µg/ml, or prostaglandin E1 (PGE1) (manufactured by Wako Pure Chemicals Industries, Ltd.) dissolved in dimethyl sulfoxide (DMSO) so as to have a final concentration of 1 µM. As a medium for control group, the medium added with DMSO was used. Here, the solvent of each additive mentioned above was added so as to have a concentration of 1% in all cases. […] In addition, in order to carry out a semi-quantitative experiment, â-actin, a housekeeping gene, was also detected. […] In all of the samples, mRNA of HGF was detected. […]

MRC-5 cells [3] = experiment: synergistic effect on HGF production with PGE1 or IL-1α in MRC-5 cells; assay type: cell-based, Human; details: control = 100%
Source text: (1) Synergistic effect for the induction action for HGF production of the fucoidan derived from Kjellmaniella crassifolia described in item (1) of Reference Example 1 with prostaglandin or IL-1 was studied in the same manner as that in item (1) of Example 1.
Specifically, the synergistic effect for the induction activity for HGF production was studied by simultaneously adding the fucoidan and PGE1 (manufactured by Wako Pure Chemicals Industries, Ltd.) or IL-1α (manufactured by Genzyme).
The fucoidan sample was added so as to have a final concentration of 1, 10 or 100 µg/ml. PGE1 was added so as to have a concentration of 0.1 or 1 µM, the IL-1α was added so as to have a concentration of 1 ng/ml. As a control, distilled water was added in same volume as that of the sample.
The synergistic effect was studied in comparison to the amount produced of a case where the fucoidan sample or PGE1 or IL-1α was added alone.
In Tables 35 and 36, the amount of HGF produced of the control was regarded as 100%. Each experiment was carried out twice, and an average value was taken. […]
(2) Synergistic effect for the induction action for HGF production of 7-12SFd-F of Reference Example 2 with prostaglandin or IL-1 was studied in the same manner as that in item (1) of Example 2. […]

`Cc1c2oc3c(C)ccc(C(=O)N[C@@H]4C(=O)N[C@H](C(C)C)C(=O)N5CCC[C@H]5C(=O)N(C)CC(=O)N(C)[C@@H](C(C)C)C(=O)O[C@@H]4C)c3nc-2c(C(=O)N[C@@H]2C(=O)N[C@H](C(C)C)C(=O)N3CCC[C@H]3C(=O)N(C)CC(=O)N(C)[C@@H](C(C)C)C(=O)O[C@@H]2C)c(N)c1=O` [Actinomycin D, actinomycin D] (I: T[dV]P[Sar][NMeV] / II: T[dV]P[Sar][NMeV]; ester I:1-I:C, II:1-II:C; linker I:N-II:N via Actinocin(9to1)) was tested, and the “Amount of HGF Produced (Total in Cells and in Medium)” value (MRC-5 cells [1]; Actinomycin D 0.1 µg/ml alone) was 61%, the “Inhibitory Ratio Where Actinomycin D Non-Added Group Was Regarded as 100% (Total in Cells and in Medium)” value (MRC-5 cells [1]; Actinomycin D 0.1 µg/ml alone) was 39% and the “Inhibitory Ratio Where Actinomycin D Non-Added Group Was Regarded as 100% (in Medium)” value (MRC-5 cells [1]; Actinomycin D 0.1 µg/ml alone) was 21% and 24%. The “Amount of HGF Produced (in Medium)” value (MRC-5 cells [1]; Actinomycin D 0.1 µg/ml alone) was 79% and 76%, the “Amount of HGF Produced (Total in Cells and in Medium)” value (MRC-5 cells [1]; Actinomycin D 1 µg/ml alone) was 59% and the “Inhibitory Ratio Where Actinomycin D Non-Added Group Was Regarded as 100% (Total in Cells and in Medium)” value (MRC-5 cells [1]; Actinomycin D 1 µg/ml alone) was 41%. The “Inhibitory Ratio Where Actinomycin D Non-Added Group Was Regarded as 100% (in Medium)” value (MRC-5 cells [1]; Actinomycin D 1 µg/ml alone) was 17% and 20% and the “Amount of HGF Produced (in Medium)” value (MRC-5 cells [1]; Actinomycin D 1 µg/ml alone) was 83% and 80%.
With `Nc1cc(N2CCCCC2)nc(N)[n+]1[O-]` [Minoxidil, minoxidil] the “Concentration of HGF in Medium” value (NHDF cells; Minoxidil 10 µg/ml alone) was 126.04 pg/mL and the “Concentration of HGF in Medium” value (NHDF cells; Minoxidil 100 µg/ml alone) was 148.83 pg/mL and 137.20 pg/mL.
In the case of `CCCCC[C@H](O)/C=C/[C@H]1[C@H](O)CC(=O)[C@@H]1CCCCCCC(=O)O` [PGE1, prostaglandin E1], the “induction of mRNA of HGF” value (MRC-5 cells [2]) is reported as “found”, the “Amount of HGF Produced” value (MRC-5 cells [3]; PGE1 0.1 µM alone) is reported as 119% and 123% and the “Amount of HGF Produced” value (MRC-5 cells [3]; PGE1 1 µM alone) is reported as 157% and 170%.
